Reference: the supplement of paper PMC10307832

Assays:
Experiment in all cases: relative viability (nuclei count vs DMSO), 5 days (fraction); higher = more cells survive
[1] = compound: CCc1cnn2c(NCc3ccc[n+]([O-])c3)cc(N3CCCC[C@H]3CCO)nc12 [Dinaciclib] + Cc1nc(Nc2ncc(C(=O)Nc3c(C)cccc3Cl)s2)cc(N2CCN(CCO)CC2)n1 [Dasatinib] (partner 0.075 µM)
Method in brief: (§1)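 Relative viability is defined as nuclei in treated wells over nuclei in vehicle wells. Duplicate plates were run and medians reported. Lung cancer cell lines in 1536-well plates were dosed by pin tool one day after seeding, with one drug or with a fixed anchor-drug dose plus five library-drug doses (not always all listed) in √10 steps, and nuclei were counted after 5 days.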

[2] = compound: CCc1cnn2c(NCc3ccc[n+]([O-])c3)cc(N3CCCC[C@H]3CCO)nc12 [Dinaciclib] + NC(=O)Nc1cc(-c2cccc(F)c2)sc1C(=O)N[C@H]1CCCNC1 [AZD7762] (partner 0.2 µM)
Method in brief: as §1

[3] = compound: CCc1cnn2c(NCc3ccc[n+]([O-])c3)cc(N3CCCC[C@H]3CCO)nc12 [Dinaciclib] + Cc1cc(Nc2cc(N3CCN(C)CC3)nc(Sc3ccc(NC(=O)C4CC4)cc3)n2)n[nH]1 [Tozasertib] (partner 0.1 µM)
Method in brief: as §1

[4] = compound: CCc1cnn2c(NCc3ccc[n+]([O-])c3)cc(N3CCCC[C@H]3CCO)nc12 [Dinaciclib] + CC(=O)c1c(C)c2cnc(Nc3ccc(N4CCNCC4)cn3)nc2n(C2CCCC2)c1=O [Palbociclib] (partner 0.5 µM)
Method in brief: as §1

[5] = compound: CCc1cnn2c(NCc3ccc[n+]([O-])c3)cc(N3CCCC[C@H]3CCO)nc12 [Dinaciclib] + CC(=O)Nc1cccc(-n2c(=O)n(C3CC3)c(=O)c3c(Nc4ccc(I)cc4F)n(C)c(=O)c(C)c32)c1 [Trametinib] (partner 0.02 µM)
Method in brief: as §1

Row | Cell Line | relative viability ([1]; first compound 0.009487 µM) | relative viability ([1]; first compound 0.03 µM) | relative viability ([1]; first compound 0.09487 µM) | relative viability ([1]; first compound 0.3 µM) | relative viability ([2]; first compound 0.009487 µM) | relative viability ([2]; first compound 0.03 µM) | relative viability ([2]; first compound 0.09487 µM) | relative viability ([2]; first compound 0.3 µM) | relative viability ([3]; first compound 0.009487 µM) | relative viability ([3]; first compound 0.03 µM) | relative viability ([3]; first compound 0.09487 µM) | relative viability ([3]; first compound 0.3 µM) | relative viability ([4]; first compound 0.009487 µM) | relative viability ([4]; first compound 0.03 µM) | relative viability ([4]; first compound 0.09487 µM) | relative viability ([4]; first compound 0.3 µM) | relative viability ([5]; first compound 0.009487 µM) | relative viability ([5]; first compound 0.03 µM) | relative viability ([5]; first compound 0.09487 µM) | relative viability ([5]; first compound 0.3 µM)
1 | 201T | 0.621 | 0.428 | 0.265 | 0.245 | 0.79 | 0.844 | 0.252 | 0.228 | 0.915 | 0.293 | 0.274 | 0.263 | 0.354 | 0.285 | 0.231 | 0.228 | 0.821 | 0.675 | 0.249 | 0.228
2 | NCI-H3122 | 0.616 | 0.0841 | 0.0766 | 0.0827 | 1.07 | 0.107 | 0.0953 | 0.0953 | 0.169 | 0.091 | 0.0926 | 0.0829 | 0.175 | 0.108 | 0.0876 | 0.0895 | 0.292 | 0.102 | 0.0935 | 0.0911
3 | NCI-H727 | 0.344 | 0.263 | 0.209 | 0.325 | 0.716 | 0.413 | 0.356 | 0.34 | 0.538 | 0.287 | 0.276 | 0.282 | 0.633 | 0.38 | 0.361 | 0.383 | 0.39 | 0.324 | 0.324 | 0.392
4 | NCI-H441 | 0.562 | 0.186 | 0.146 | 0.144 | 1.17 | 0.758 | 0.141 | 0.16 | 0.603 | 0.223 | 0.23 | 0.175 | 0.197 | 0.148 | 0.125 | 0.113 | 0.42 | 0.156 | 0.137 | 0.114
5 | HOP-62 | 0.662 | 0.33 | 0.0666 | 0.0723 | 0.706 | 0.225 | 0.0545 | 0.068 | 0.293 | 0.13 | 0.0833 | 0.075 | 0.465 | 0.187 | 0.071 | 0.0775 | 0.492 | 0.361 | 0.0804 | 0.0808
6 | HCC-44 |  |  |  |  | 0.999 | 1.05 | 0.351 | 0.327 | 0.594 | 0.204 | 0.206 | 0.184 | 0.9 | 0.798 | 0.367 | 0.342 | 1.13 | 0.846 | 0.343 | 0.339
7 | SK-LU-1 | 0.173 | 0.142 | 0.134 | 0.135 |  |  |  |  | 0.329 | 0.132 | 0.131 | 0.119 | 0.393 | 0.229 | 0.17 | 0.165 | 0.517 | 0.176 | 0.205 | 0.186
8 | NCI-H1703 |  |  |  |  | 0.132 | 0.125 | 0.0862 | 0.087 |  |  |  |  |  |  |  |  |  |  |  | 
9 | NCI-H2023 | 0.393 | 0.0627 | 0.0546 | 0.0553 |  |  |  |  | 0.446 | 0.0768 | 0.0628 | 0.0577 | 0.301 | 0.0599 | 0.0471 | 0.063 | 0.382 | 0.078 | 0.0799 | 0.0821
10 | NCI-H661 | 0.38 | 0.144 | 0.17 | 0.132 |  |  |  |  | 0.339 | 0.183 | 0.199 | 0.18 | 0.431 | 0.188 | 0.14 | 0.153 | 0.512 | 0.162 | 0.17 | 0.161
11 | COR-L 105 | 0.25 | 0.201 | 0.191 | 0.187 |  |  |  |  | 0.369 | 0.304 | 0.25 | 0.208 | 0.414 | 0.311 | 0.296 | 0.309 | 0.41 | 0.327 | 0.35 | 0.329
12 | NCI-H2228 | 0.399 | 0.106 | 0.0787 | 0.0912 |  |  |  |  | 0.333 | 0.137 | 0.0995 | 0.0912 | 0.651 | 0.115 | 0.0872 | 0.0982 | 0.496 | 0.11 | 0.0915 | 0.116
13 | NCI-H596 | 0.675 | 0.643 | 0.232 | 0.178 | 1.09 | 0.479 | 0.262 | 0.24 | 0.853 | 0.456 | 0.176 | 0.164 |  |  |  |  | 0.711 | 0.692 | 0.19 | 0.19
14 | NCI-H1650 | 0.197 | 0.171 | 0.179 | 0.133 |  |  |  |  | 0.363 | 0.176 | 0.119 | 0.147 | 0.343 | 0.0912 | 0.115 | 0.0963 | 0.516 | 0.163 | 0.151 | 0.119
15 | NCI-H1792 | 0.823 | 0.631 | 0.439 | 0.183 | 0.585 | 0.0463 | 0.032 | 0.0288 |  |  |  |  | 0.677 | 0.365 | 0.217 | 0.152 | 0.432 | 0.361 | 0.0776 | 0.0462
16 | SK-MES-1 | 0.217 | 0.109 | 0.0863 | 0.114 |  |  |  |  | 0.777 | 0.157 | 0.156 | 0.139 | 0.327 | 0.179 | 0.18 | 0.154 | 0.536 | 0.175 | 0.192 | 0.178
17 | UMC-11 | 0.209 | 0.175 | 0.142 | 0.144 |  |  |  |  | 0.2 | 0.215 | 0.202 | 0.173 | 0.29 | 0.173 | 0.177 | 0.167 | 0.253 | 0.172 | 0.132 | 0.146
18 | NCI-H1563 | 0.448 | 0.307 | 0.133 | 0.123 |  |  |  |  |  |  |  |  |  |  |  |  |  |  |  | 
19 | COR-L23 | 0.349 | 0.0817 | 0.0588 | 0.0557 |  |  |  |  | 0.214 | 0.0848 | 0.0671 | 0.0704 | 0.222 | 0.0905 | 0.0689 | 0.0651 | 0.508 | 0.111 | 0.0846 | 0.0705
20 | SW 1573 | 0.161 | 0.0578 | 0.0571 | 0.06 |  |  |  |  | 0.141 | 0.0738 | 0.0542 | 0.0806 | 0.218 | 0.0747 | 0.0634 | 0.0773 | 0.404 | 0.0877 | 0.0832 | 0.0755
